Laboratory results taken from US10975056B2 (GlaxoSmithKline Intellectual Property Development Limited, priority 2016, dated 2021).
Values joined by “and” are separate entries in the source; they are usually repeats but may differ in a detail not shown here. Identical values can stand only once. Counter-ions that a name gives are not always drawn. Like-named read-outs stand apart in the source and are kept apart here.

Tests used:
[1] = tested on: erythroid progenitor cells (EPCs); assay: Fetal hemoglobin (HbF) ELISA in day 7 erythroid progenitor cells; format: cell-based, human; conditions: Homo sapiens, Erythroid progenitor cell, HbF ELISA, day 7 EPCs, 5 days; read-out: EPC ELISA (pEC50 category) (converted);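 also: for fetal hemoglobin induction normalized to vehicle-treated cells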
How it was run: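 HbF induction was read by anti-HbF sandwich ELISA (HRP/TMB, OD450) on lysates and normalized to vehicle-treated cells. Cells were day 7 erythroid progenitors derived from human bone marrow CD34+ cells, seeded at 1,000/well with 3 U/mL rhEPO. Compound was given for 5 days at 37 °C at final concentrations […].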

[2] = molecular target: DNMT1 (Homo sapiens, UniProt P26358); assay: DNMT1 biochemical activity, breaklight assay and/or SPA assay
[3] = binned activity in either the breaklight or the SPA assay
[4] = binned activity in either the breaklight or the SPA assay, read-out: DNMT1 BioChemical (pIC50 category) (converted)
[5] = breaklight assay and/or SPA assay, repeated experimental runs, read-out: average pIC50 against DNMT1 (converted)

Sequence of DNMT1 (P26358 whole entry, looked up): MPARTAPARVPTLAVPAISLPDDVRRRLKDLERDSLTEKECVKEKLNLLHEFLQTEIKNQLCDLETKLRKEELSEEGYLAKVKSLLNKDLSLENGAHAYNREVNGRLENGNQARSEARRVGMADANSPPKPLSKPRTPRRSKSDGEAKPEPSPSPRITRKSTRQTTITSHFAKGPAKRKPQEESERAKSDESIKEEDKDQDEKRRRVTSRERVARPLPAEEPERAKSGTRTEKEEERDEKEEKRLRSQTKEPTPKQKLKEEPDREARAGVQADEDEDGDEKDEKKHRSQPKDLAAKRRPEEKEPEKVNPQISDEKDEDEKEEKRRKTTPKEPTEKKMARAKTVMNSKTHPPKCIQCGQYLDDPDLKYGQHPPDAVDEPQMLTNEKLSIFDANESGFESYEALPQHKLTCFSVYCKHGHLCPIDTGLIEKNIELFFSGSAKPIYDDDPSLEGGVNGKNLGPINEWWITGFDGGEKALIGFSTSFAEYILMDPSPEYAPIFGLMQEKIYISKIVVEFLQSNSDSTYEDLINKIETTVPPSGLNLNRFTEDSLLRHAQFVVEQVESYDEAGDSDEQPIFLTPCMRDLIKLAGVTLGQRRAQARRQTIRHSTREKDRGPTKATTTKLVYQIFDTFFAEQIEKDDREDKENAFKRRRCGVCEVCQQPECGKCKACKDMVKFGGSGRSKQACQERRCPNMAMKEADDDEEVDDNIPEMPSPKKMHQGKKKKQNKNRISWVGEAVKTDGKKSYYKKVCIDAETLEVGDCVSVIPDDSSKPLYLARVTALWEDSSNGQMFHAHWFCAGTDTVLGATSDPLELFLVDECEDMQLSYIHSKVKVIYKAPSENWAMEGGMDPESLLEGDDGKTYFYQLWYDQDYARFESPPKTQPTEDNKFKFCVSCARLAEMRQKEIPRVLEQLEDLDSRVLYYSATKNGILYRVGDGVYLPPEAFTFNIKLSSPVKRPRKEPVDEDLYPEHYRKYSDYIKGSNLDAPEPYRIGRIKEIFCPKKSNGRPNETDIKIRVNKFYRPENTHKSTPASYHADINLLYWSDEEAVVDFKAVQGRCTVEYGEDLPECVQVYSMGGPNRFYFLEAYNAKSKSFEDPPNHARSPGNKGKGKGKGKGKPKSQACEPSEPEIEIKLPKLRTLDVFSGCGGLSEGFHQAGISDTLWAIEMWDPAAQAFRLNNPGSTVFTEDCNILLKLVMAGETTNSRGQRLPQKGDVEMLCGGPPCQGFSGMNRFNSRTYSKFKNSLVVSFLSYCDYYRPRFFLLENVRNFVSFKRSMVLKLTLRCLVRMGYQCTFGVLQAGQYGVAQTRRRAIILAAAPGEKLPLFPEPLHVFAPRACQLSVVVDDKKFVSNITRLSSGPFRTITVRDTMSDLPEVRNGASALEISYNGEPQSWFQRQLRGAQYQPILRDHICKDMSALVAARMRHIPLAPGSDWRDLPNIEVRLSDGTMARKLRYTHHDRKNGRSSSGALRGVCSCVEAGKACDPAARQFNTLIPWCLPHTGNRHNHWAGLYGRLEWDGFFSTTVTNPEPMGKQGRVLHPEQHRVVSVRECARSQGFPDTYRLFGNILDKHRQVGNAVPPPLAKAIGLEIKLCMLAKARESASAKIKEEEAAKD

| Structure (SMILES) | EC50 [1] | DNMT1 BioChemical (pIC50 category) [2, 3] | IC50 [2, 4] | IC50 [2, 5] |
| --- | --- | --- | --- | --- |
| CCc1c(C#N)c(SC(C(N)=O)c2ccccc2)nc(N(C)CCN)c1C#N (centres unmarked) [Example 144, 2-((6-((2-Aminoethyl)(methyl)amino)-3,5-dicyano-4-ethylpyridin-2-yl)thio)-2-phenylacetamide, Trifluoroacetic Acid Salt] | < 316 nM | D (Category D: ≥6.5) |  |  |
| CCc1c(C#N)c(SC(C(N)=O)c2cccc(N3CCCC3)c2)nc(N2CCCN(C)CC2)c1C#N (centres unmarked) [Example 247, 2-((3,5-Dicyano-4-ethyl-6-(4-methyl-1,4-diazepan-1-yl)pyridin-2-yl)thio)-2-(3-(pyrrolidin-1-yl)phenyl)acetamide] | 316 to 1000 nM |  | 1000 to 31600 nM | ≥ 1000 nM and 1580 nM |
| CN(C)c1nc(SC(C(N)=O)c2ccncc2)c(C#N)c(C2CC2)c1C#N (centres unmarked) [Example 26, 2-((3,5-dicyano-4-cyclopropyl-6-(dimethylamino)pyridin-2-yl)thio)-2-(pyridin-4-yl)acetamide] | > 31600 nM |  | 316 to 1000 nM |  |
| CCc1c(C#N)c(SCc2ccc(CNC(=O)Nc3ccccc3)cc2)nc(N2CCCN(C)CC2)c1C#N [Example 100, 1-(4-(((3,5-Dicyano-4-ethyl-6-(4-methyl-1,4-diazepan-1-yl)pyridin-2-yl)thio)methyl)benzyl)-3-phenylurea] | > 31600 nM |  | 316 to 1000 nM |  |
| CCc1c(C#N)c(SC(C(N)=O)c2ccc(C(F)(F)F)cc2)nc(N2CCCN(C)CC2)c1C#N (centres unmarked) [Example 233, 2-((3,5-dicyano-4-ethyl-6-(4-methyl-1,4-diazepan-1-yl)pyridin-2-yl)thio)-2-(4-(trifluoromethyl)phenyl)acetamide] | < 316 nM |  | 316 to 1000 nM |  |
| N#Cc1c(SC(C(N)=O)c2ccncc2)nc(N2CCNCC2)c(C#N)c1C1CC1 (centres unmarked) [Example 30, 2-((3,5-dicyano-4-cyclopropyl-6-(piperazin-1-yl)pyridin-2-yl)thio)-2-(pyridin-4-yl)acetamide] | > 31600 nM |  | 316 to 1000 nM |  |
| CCc1c(C#N)c(SC(C(N)=O)c2ccccc2)nc(N2CCC3(CC2)CNC(=O)O3)c1C#N (centres unmarked) [Example 256, 2-((3,5-Dicyano-4-ethyl6-(2-oxo-1-oxa-3,8-diazaspiro[4.5]decan-8-yl)pyridin-2-yl)thio)-2-phenylacetamide] | 1000 to 31600 nM |  | 316 to 1000 nM |  |
| CCc1c(C#N)c(S[C@@H](C(N)=O)c2ccccc2)nc(N2CCC(N(C)C)CC2)c1C#N [Example 406, (R)-2-((3,5-Dicyano-6-(4-(dimethylamino)piperidin-1-yl)-4-ethylpyridin-2-yl)thio)-2-phenylacetamide] | < 316 nM | D (Category D: ≥6.5) |  |  |
| CCc1c(C#N)c(S[C@H](C(N)=O)c2ccc(F)cc2)nc(N2CCC(N(C)C)CC2)c1C#N (single isomer, unassigned) [Example 465, 2-((3,5-dicyano-6-(4-(dimethylamino)piperidin-1-yl)-4-ethylpyridin-2-yl)thio)-2-(4-fluorophenyl)acetamide, Formic acid salt] | < 316 nM | D (Category D: ≥6.5) |  |  |
| CCc1c(C#N)c(SC(C(N)=O)c2cc(OC)ccn2)nc(N2CCCN(C)CC2)c1C#N (centres unmarked) [Example 214, 2-((3,5-Dicyano-4-ethyl-6-(4-methyl-1,4-diazepan-1-yl)pyridin-2-yl)thio)-2-(4-methoxypyridin-2-yl)acetamide] | > 31600 nM |  | 1000 to 31600 nM |  |
| CCc1c(C#N)c(SCc2ccc(CNC(=O)CO)cc2)nc(N(C)C)c1C#N [Example 278, N-(4-(((3,5-Dicyano-6-(dimethylamino)-4-ethylpyridin-2-yl)thio)methyl)benzyl)-2-hydroxyacetamide] | 1000 to 31600 nM | D (Category D: ≥6.5) |  |  |
| CCc1c(C#N)c(SC(C(N)=O)c2ccccc2)nc(N2CCN(Cc3ccoc3)CC2)c1C#N (centres unmarked) [Example 200, 2-((3,5-Dicyano-4-ethyl-6-(4-(furan-3-ylmethyl)piperazin-1-yl)pyridin-2-yl)thio)-2-phenylacetamide] | 1000 to 31600 nM |  | 316 to 1000 nM |  |
| COc1c(C#N)c(SC(C(N)=O)c2ccccc2)nc(N2CCCN(CCO)CC2)c1C#N (centres unmarked) [Example 142, 2-((3,5-Dicyano-6-(4-(2-hydroxyethyl)-1,4-diazepan-1-yl)-4-methoxypyridin-2-yl)thio)-2-phenylacetamide] | 316 to 1000 nM | D (Category D: ≥6.5) |  |  |
| CCc1c(C#N)c(SCc2ccc(CNC(C)=O)cc2)nc(N2CCC(N3CCCC3)CC2)c1C#N [Example 66, N-(4-((3,5-Dicyano-4-ethyl-6-(4-(pyrrolidin-1-yl)piperidin-1-yl)pyridin-2-ylthio)methyl)benzyl)acetamide trifluoroacetate] | < 316 nM | D (Category D: ≥6.5) |  |  |
| CCc1c(C#N)c(C)nc(SC(C(N)=O)c2ccccc2)c1C#N (centres unmarked) [Example 283, 2-((3,5-Dicyano-4-ethyl-6-methylpyridin-2-yl)thio)-2-phenylacetamide] | 1000 to 31600 nM |  | 316 to 1000 nM | 316 to 1000 nM and 631 nM |

Now from value to molecule:

| EC50 [1] | DNMT1 BioChemical (pIC50 category) [2, 3] | IC50 [2, 4] | IC50 [2, 5] | Structure (SMILES) |
| --- | --- | --- | --- | --- |
| 1000 to 31600 nM | D (Category D: ≥6.5) |  |  | CCc1c(C#N)c(SC(C(N)=O)c2ccccc2)nc(N(C)CCONC(=N)N)c1C#N (centres unmarked) [Example 644, 2-((3,5-dicyano-4-ethyl-6-((2-(guanidinooxy)ethyl)(methyl)amino)pyridin-2-yl)thio)-2-phenylacetamide] |
| < 316 nM | D (Category D: ≥6.5) |  |  | CCc1c(C#N)c(SC(C(N)=O)c2ccccc2)nc(N(C)CC(=O)N(C)CC2(CO)CC2)c1C#N (centres unmarked) [Example 609, 2-((6-((2-amino-2-oxo-1-phenylethyl)thio)-3,5-dicyano-4-ethylpyridin-2-yl)(methyl)amino)-N-((1-(hydroxymethyl)cyclopropyl)methyl)-N-methylacetamide] |
| < 316 nM | D (Category D: ≥6.5) |  |  | CCc1c(C#N)c(SCc2ccc(N(C)S(C)(=O)=O)cc2)nc(N(C)CCN(C)C)c1C#N [Example 482, N-(4-(((3,5-dicyano-6-((2-(dimethylamino)ethyl)(methyl)amino)-4-ethylpyridin-2-yl)thio)methyl)phenyl)-N-methylmethanesulfonamide] |
| 316 to 1000 nM | D (Category D: ≥6.5) |  |  | CCc1c(C#N)c(SC(C(N)=O)c2ccccc2)nc(N(C)CCN2CC[C@H](N)C2)c1C#N (stereo partly drawn) [Example 535, 2-((6-((2-((S)-3-aminopyrrolidin-1-yl)ethyl)(methyl)amino)-3,5-dicyano-4-ethylpyridin-2-yl)thio)-2-phenylacetamide] |
| 316 to 1000 nM | D (Category D: ≥6.5) |  |  | CCc1c(C#N)c(SC(C(N)=O)c2ccccc2)nc(N(C)CC(=O)N(CCO)CCO)c1C#N (centres unmarked) [Example 668, 2-((6-((2-amino-2-oxo-1-phenylethyl)thio)-3,5-dicyano-4-ethylpyridin-2-yl)(methyl)amino)-N,N-bis(2-hydroxyethyl)acetamide] |
| < 316 nM | D (Category D: ≥6.5) |  |  | CCc1c(C#N)c(SCc2ccc(N(C)S(C)(=O)=O)cc2)nc(N2CCC(NCC(C)(C)C)CC2)c1C#N [Example 569, N-(4-(((3,5-dicyano-4-ethyl-6-(4-(neopentylamino)piperidin-1-yl)pyridin-2-yl)thio)methyl)phenyl)-N-methylmethanesulfonamide] |
| < 316 nM | D (Category D: ≥6.5) |  |  | CCc1c(C#N)c(SC(C(N)=O)c2ccc(F)cc2)nc(N2CCC(NCC(C)(C)C)CC2)c1C#N (centres unmarked) [Example 408, 2-((3,5-Dicyano-4-ethyl-6-(4-(neopentylamino)piperidin-1-yl)pyridin-2-yl)thio)-2-(4-fluorophenyl)acetamide] |
| 316 to 1000 nM | D (Category D: ≥6.5) |  |  | CCc1c(C#N)c(S[C@@H](C(N)=O)c2ccccc2)nc(N2CC[C@@H](NC(=O)OC(C)(C)C)[C@H](O)C2)c1C#N [Example 542, tert-butyl((3R,4R)-1-(6-(((R)-2-amino-2-oxo-1-phenylethyl)thio)-3,5-dicyano-4-ethylpyridin-2-yl)-3-hydroxypiperidin-4-yl)carbamate*] |
| 1000 to 31600 nM | D (Category D: ≥6.5) |  |  | CCc1c(C#N)c(SC(C(N)=O)c2ccccc2)nc(N2CCC(CO)(NCCO)CC2)c1C#N (centres unmarked) [Example 661, 2-((3,5-dicyano-4-ethyl-6-(4-((2-hydroxyethyl)amino)-4-(hydroxymethyl)piperidin-1-yl)pyridin-2-yl)thio)-2-phenylacetamide] |
| < 316 nM | D (Category D: ≥6.5) |  |  | CCc1c(C#N)c(SC(C(N)=O)c2ccccc2)nc(N(C)CCN2CCCCC2)c1C#N (centres unmarked) [Example 478, 2-((3,5-dicyano-4-ethyl-6-(methyl(2-(piperidin-1-yl)ethyl)amino)pyridin-2-yl)thio)-2-phenylacetamide] |
| < 316 nM | D (Category D: ≥6.5) |  |  | CCc1c(C#N)c(SC(C(N)=O)c2ccccc2)nc(N(C)CC(=O)N2CC[C@H](CO)C2)c1C#N (stereo partly drawn) [Example 648, 2-((3,5-dicyano-4-ethyl-6-((2-((S)-3-(hydroxymethyl)pyrrolidin-1-yl)-2-oxoethyl)(methyl)amino)pyridin-2-yl)thio)-2-phenylacetamide] |
| 1000 to 31600 nM |  | < 316 nM |  | N#Cc1c(SC(C(N)=O)c2ccccc2)nc(N2CC(NC(=O)C3(N)COC3)C2)c(C#N)c1C1CC1 (centres unmarked) [Example 680, 3-amino-N-(1-(6-((2-amino-2-oxo-1-phenylethyl)thio)-3,5-dicyano-4-cyclopropylpyridin-2-yl)azetidin-3-yl)oxetane-3-carboxamide] |
